Values joined by “and” are separate entries in the source; they are usually repeats but may differ in a detail not shown here. Equal values may be shown once. Read-outs that look alike come from different tables or passages of the source.
Assays:
[1] = tested on: intracellular HBV DNA; test: Real-time PCR for intracellular HBV DNA in HepAD38 cells; assay type: cell-based, hepatitis B virus (HBV); conditions: treated for 65 hours, intracellular HBV DNA by real-time PCR
Description: HepAD38 cells were cultured in DMEM medium (Welgene) supplemented with 200 unit/mL penicillin, 200 μg/mL streptomycin, and 10% FBS. During maintenance and passage, the cells were cultured together with 0.4 μg/mL tetracycline. Two days before the treatment with compounds for inducing HBV replication was started, the medium was replaced with a tetracycline-free complete growth medium. […]
HepAD38 cells were treated with a compound for 65 hours and then recovered, and intracellular HBV DNA was extracted therefrom according to the protocol in the DNeasy Blood & Tissue Kit (Qiagen). The primers and probes used to quantify HBV DNA were 5′-[…]-3′, 5′-[…]-3′, and 5′-/56-FAM/TGT CCT GGT/ZEN/[…]/3IABKFQ/-3′. The HBV DNA was amplified by real-time PCR assay using LightCycler 480 (Roche) (J. Virol., 2018, 92(16):e00339-18). All of the processes were confirmed in duplicate.

[2] = biological target: Protein (capsid assembly) (Hepatitis B virus genotype D subtype ayw, UniProt P03146); test: Protein inhibition (capsid assembly inhibition), Table 1; assay type: biochemical; conditions: for EC50: NVR value of the same run in brackets, read-out: Protein EC50
[3] = Hepatitis B virus, HePAD38, 65 h
[4] = @30 μM, read-out: Protein % inhibition rate (@30 μM)

Sequence of Protein (capsid assembly) (P03146 whole entry): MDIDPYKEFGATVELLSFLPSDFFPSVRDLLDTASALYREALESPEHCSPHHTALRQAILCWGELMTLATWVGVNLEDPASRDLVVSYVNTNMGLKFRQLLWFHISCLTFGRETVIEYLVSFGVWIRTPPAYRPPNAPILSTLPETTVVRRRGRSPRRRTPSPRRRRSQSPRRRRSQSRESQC

Compound | IC50 [1, 3] | inhibition at 30 µM [2, 4] | EC50 [2] | inhibition at 30 µM ([2]; read-out: Protein % inhibition rate (@30 μM), @30 μM) | IC50 ([1]; read-out: IC50)
O=C(Nc1ccccc1Cl)N(Cc1nnc2n1CCCCC2)c1ccc2c(c1)OCO2 [Example 5, 1-(Benzo[d][1,3]dioxol-5-yl)-3-(2-chlorophenyl)-1-((6,7,8,9-tetrahydro-5H-[1,2,4]triazolo[4,3-a]azepin-3-yl)methyl)urea] | > 3.3 µM | 9% | – | – | –
O=C(Nc1ccc(F)c(Cl)c1)N(Cc1nnc2n1CCCCC2)C1CCCC1 [Example 6, 3-(3-Chloro-4-fluorophenyl)-1-cyclopentyl-1-((6,7,8,9-tetrahydro-5H-[1,2,4]triazolo[4,3-a]azepin-3-yl)methyl)urea] | 1.57 µM | 77% | 1.2 µM | – | –
COc1ccc(N(Cc2nnc3n2CCCCC3)C(=O)N(C)c2ccc(F)c(Cl)c2)cc1 [Example 9, 1-(3-Chloro-4-fluorophenyl)-3-(4-methoxyphenyl)-1-methyl-3-((6,7,8,9-tetrahydro-5H-[1,2,4]triazolo[4,3-a]azepin-3-yl)methyl)urea] | 0.75 µM | 5% | – | – | –
O=C(Nc1ccc(F)c(Cl)c1)N(Cc1nnc2n1CCCCC2)c1ccc2cc[nH]c2c1 [Example 10, 3-(3-Chloro-4-fluorophenyl)-1-(1H-indol-6-yl)-1-((6,7,8,9-tetrahydro-5H-[1,2,4]triazolo[4,3-a]azepin-3-yl)methyl)urea] | > 3.3 µM | 85% | – | – | –
O=C(NC1CCCC1)N(Cc1nnc2n1CCCCC2)c1ccc2c(c1)OCO2 [Example 11, 1-(Benzo[d][1,3]dioxol-5-yl)-3-cyclopentyl-1-((6,7,8,9-tetrahydro-5H-[1,2,4]triazolo[4,3-a]azepin-3-yl)methyl)urea] | > 3.3 µM | 4% | – | – | –
CNc1ccc(N(Cc2nnc3n2CCCCC3)C(=O)Nc2ccc(F)c(Cl)c2)cc1 [Example 14, 3-(3-Chloro-4-fluorophenyl)-1-(4-(methylamino)phenyl)-1-((6,7,8,9-tetrahydro-5H-[1,2,4]triazolo[4,3-a]azepin-3-yl)methyl)urea] | > 0.55 µM | 92% | 2.8 µM | – | –
COc1ccc(N(Cc2nnc(C)n2C)C(=O)Nc2ccc(F)c(Cl)c2)cc1 [Example 15, 3-(3-Chloro-4-fluorophenyl)-1-((4,5-dimethyl-4H-1,2,4-triazol-3-yl)methyl)-1-(4-methoxyphenyl)urea] | > 3.3 µM | 55.3% | 29 µM | – | –
CC(C)(C)OC(=O)n1ccc2cc(N(Cc3nnc4n3CCCCC4)C(=O)Nc3ccc(F)c(Cl)c3)ccc21 [Example 17, tert-Butyl 5-(3-(3-chloro-4-fluorophenyl)-1-((6,7,8,9-tetrahydro-5H-[1,2,4]triazolo[4,3-a]azepin-3-yl)methyl)ureido)-1H-indole-1-carboxylate] | > 3.3 µM | 92.6% | 13 µM | – | –
O=C(Nc1ccc(F)c(Cl)c1)N(Cc1nnc2n1CCCCC2)c1ccc2[nH]ccc2c1 [Example 18, 3-(3-Chloro-4-fluorophenyl)-1-(1H-indol-5-yl)-1-((6,7,8,9-tetrahydro-5H-[1,2,4]triazolo[4,3-a]azepin-3-yl)methyl)urea] | > 3.3 µM | 96.8% | 4.8 µM | – | –
N#Cc1cccc(N(Cc2nnc3n2CCCCC3)C(=O)Nc2ccc(F)c(Cl)c2)c1 [Example 19, 3-(3-Chloro-4-fluorophenyl)-1-(3-cyanophenyl)-1-((6,7,8,9-tetrahydro-5H-[1,2,4]triazolo[4,3-a]azepin-3-yl)methyl)urea] | > 3.3 µM | 94% | – | – | –
Cc1cccc(NC(=O)N(Cc2nnc3n2CCCCC3)c2ccc3c(c2)OCO3)n1 [Example 20, 1-(Benzo[d][1,3]dioxol-5-yl)-3-(6-methylpyridin-2-yl)-1-((6,7,8,9-tetrahydro-5H-[1,2,4]triazolo[4,3-a]azepin-3-yl)methyl)urea] | 0.89 µM | 3% | – | – | –
O=C(Nc1ccc(F)c(Cl)c1)N(Cc1nnc2n1CCCCC2)c1cccc(C(F)(F)F)c1 [Example 21, 3-(3-Chloro-4-fluorophenyl)-1-((6,7,8,9-tetrahydro-5H-[1,2,4]triazolo[4,3-a]azepin-3-yl)methyl)-1-(3-(trifluoromethyl)phenyl)urea] | > 3.3 µM | – | 11 µM | 4% | –
COc1ccc(N(Cc2nnc(C)n2-c2ccccc2)C(=O)Nc2ccc(F)c(Cl)c2)cc1 [Example 25, 3-(3-Chloro-4-fluorophenyl)-1-(4-methoxyphenyl)-1-((5-methyl-4-phenyl-4H-1,2,4-triazol-3-yl)methyl)urea] | > 3.3 µM | -2% | – | – | –
N#Cc1ccc(N(Cc2nnc3n2CCCCC3)C(=O)Nc2ccc(F)c(Cl)c2)cc1 [Example 28, 3-(3-Chloro-4-fluorophenyl)-1-(4-cyanophenyl)-1-((6,7,8,9-tetrahydro-5H-[1,2,4]triazolo[4,3-a]azepin-3-yl)methyl)urea] | 0.604 µM | 36% | 4 µM | – | –
COc1ccc(N(Cc2nnc(C(C)C)n2C)C(=O)Nc2ccc(F)c(Cl)c2)cc1 [Example 29, 3-(3-Chloro-4-fluorophenyl)-1-((5-isopropyl-4-methyl-4H-1,2,4-triazol-3-yl)methyl)-1-(4-methoxyphenyl)urea] | > 3.3 µM | 1% | – | – | –
O=C(Nc1ccc(F)c(Cl)c1)N(Cc1nnc2n1CCCCCC2)c1ccc2c(c1)OCO2 [Example 30, 1-(Benzo[d][1,3]dioxol-5-yl)-3-(3-chloro-4-fluorophenyl)-1-((5,6,7,8,9,10-hexahydro-[1,2,4]triazolo[4,3-a]azocin-3-yl)methyl)urea] | 0.74 µM | 32% | 3.6 µM | – | –
COc1ccc(N(Cc2nnc(C3CCCC3)n2C)C(=O)Nc2ccc(F)c(Cl)c2)cc1 [Example 31, 3-(3-Chloro-4-fluorophenyl)-1-((5-cyclopentyl-4-methyl-4H-1,2,4-triazol-3-yl)methyl)-1-(4-methoxyphenyl)urea] | 3.48 µM | -4% | 16 µM | – | –
COc1ccc(N(Cc2nnc(C)n2C2CCCC2)C(=O)Nc2ccc(F)c(Cl)c2)cc1 [Example 32, 3-(3-Chloro-4-fluorophenyl)-1-((4-cyclopentyl-5-methyl-4H-1,2,4-triazol-3-yl)methyl)-1-(4-methoxyphenyl)urea] | 0.32 µM | 23% | 4.9 µM | – | –
CN(C)c1ccc(N(Cc2nnc3n2CCCCC3)C(=O)Nc2ccc(F)c(Cl)c2)cc1 [Example 34, 3-(3-Chloro-4-fluorophenyl)-1-(4-(dimethylamino)phenyl)-1-((6,7,8,9-tetrahydro-5H-[1,2,4]triazolo[4,3-a]azepin-3-yl)methyl)urea] | > 3.3 µM | -7% | – | – | –
Cn1ccc(N(Cc2nnc3n2CCCCC3)C(=O)Nc2ccc(F)c(Cl)c2)n1 [Example 35, 3-(3-Chloro-4-fluorophenyl)-1-(1-methyl-1H-pyrazol-3-yl)-1-((6,7,8,9-tetrahydro-5H-[1,2,4]triazolo[4,3-a]azepin-3-yl)methyl)urea] | > 3.3 µM | 63.1% | – | – | –
COc1ccc(N(Cc2nnc(C)n2C2CC2)C(=O)Nc2ccc(F)c(Cl)c2)cc1 [Example 37, 3-(3-Chloro-4-fluorophenyl)-1-((4-cyclopropyl-5-methyl-4H-1,2,4-triazol-3-yl)methyl)-1-(4-methoxyphenyl)urea] | > 3.3 µM | 84.1% | – | – | –
COc1ccc(N(Cc2nnc3n2CCN(C(=O)OCc2ccccc2)CC3)C(=O)Nc2ccc(F)c(Cl)c2)cc1 [Example 38, Benzyl 3-((3-(3-chloro-4-fluorophenyl)-1-(4-methoxyphenyl)ureido)methyl)-8,9-dihydro-5H-[1,2,4]triazolo[4,3-d][1,4]diazepine-7(6H)-carboxylate] | > 3.3 µM | -1% | – | – | –
O=C(Nc1ccc(F)c(Cl)c1)N(Cc1nnc2n1CCCCC2)c1ncco1 [Example 39, 3-(3-Chloro-4-fluorophenyl)-1-(oxazol-2-yl)-1-((6,7,8,9-tetrahydro-5H-[1,2,4]triazolo[4,3-a]azepin-3-yl)methyl)urea] | > 3.3 µM | 100% | 5.7 µM | – | –
COC(=O)Cc1nnc(CN(C(=O)Nc2ccc(F)c(Cl)c2)c2ccc3c(c2)OCO3)[nH]1 [Example 45, Methyl 2-(5-((1-(benzo[d][1,3]dioxol-5-yl)-3-(3-chloro-4-fluorophenyl)ureido)methyl)-4H-1,2,4-triazol-3-yl)acetate] | > 3.3 µM | 6% | – | – | –
O=C(Nc1cc(F)c(F)c(F)c1)c1ccc(F)c(S(=O)(=O)N2CCC(O)CC2)c1 [NVR, reference compound] | – | – | 4.1 µM and 5.2 µM and 4.9 µM and 3.9 µM and 4.8 µM | – | 0.4 µM

— patent US20250235462A1, “NOVEL CAPSID ASSEMBLY INHIBITORS” (AM SCIENCES INC, priority 2021, published 2025)
